{"source": "paper PMC12373846", "about": "“Hemoglobin as a pseudoperoxidase and drug target for oxidative stress-related diseases” (Signal Transduction and Targeted Therapy, 2025)", "assay_in_all_cases": "KINOMEscan", "type_in_all_cases": "binding", "conditions_in_all_cases": "10000 nM; read-out: Percent Control", "key": {"[1]": {"molecular_target": "T1, PDPK1 (Homo sapiens, UniProt O15530)", "T1 construct": "purchased DiscoverX KINOMEscan scanEDGE; Eurofins Cerep SafetyScreen87", "experimental": "(§1) The possibility of KDS12025 on kinase off-target, the KINOMEscan panel of scanEDGE assay was conducted in DiscoverX (CA, USA) using a site-directed competition binding with the test compounds. The assay results are given in Supplementary Table 4 and experimental information is available on the DiscoverX web page (www.discoverx.com). Moreover, the Delta SafetyScreen87 panel assay was conducted in Eurofins Discovery (Cerep, France). The assay results are given in Supplementary Table 5 and experimental information is available on the DiscoverX web page (https://www.eurofinsdiscoveryservices.com)."}, "[2]": {"molecular_target": "T2, CSF1R (Homo sapiens, UniProt P07333)", "T2 construct": "purchased DiscoverX KINOMEscan scanEDGE; Eurofins Cerep SafetyScreen87", "T2 sequence (P07333 20-972)": "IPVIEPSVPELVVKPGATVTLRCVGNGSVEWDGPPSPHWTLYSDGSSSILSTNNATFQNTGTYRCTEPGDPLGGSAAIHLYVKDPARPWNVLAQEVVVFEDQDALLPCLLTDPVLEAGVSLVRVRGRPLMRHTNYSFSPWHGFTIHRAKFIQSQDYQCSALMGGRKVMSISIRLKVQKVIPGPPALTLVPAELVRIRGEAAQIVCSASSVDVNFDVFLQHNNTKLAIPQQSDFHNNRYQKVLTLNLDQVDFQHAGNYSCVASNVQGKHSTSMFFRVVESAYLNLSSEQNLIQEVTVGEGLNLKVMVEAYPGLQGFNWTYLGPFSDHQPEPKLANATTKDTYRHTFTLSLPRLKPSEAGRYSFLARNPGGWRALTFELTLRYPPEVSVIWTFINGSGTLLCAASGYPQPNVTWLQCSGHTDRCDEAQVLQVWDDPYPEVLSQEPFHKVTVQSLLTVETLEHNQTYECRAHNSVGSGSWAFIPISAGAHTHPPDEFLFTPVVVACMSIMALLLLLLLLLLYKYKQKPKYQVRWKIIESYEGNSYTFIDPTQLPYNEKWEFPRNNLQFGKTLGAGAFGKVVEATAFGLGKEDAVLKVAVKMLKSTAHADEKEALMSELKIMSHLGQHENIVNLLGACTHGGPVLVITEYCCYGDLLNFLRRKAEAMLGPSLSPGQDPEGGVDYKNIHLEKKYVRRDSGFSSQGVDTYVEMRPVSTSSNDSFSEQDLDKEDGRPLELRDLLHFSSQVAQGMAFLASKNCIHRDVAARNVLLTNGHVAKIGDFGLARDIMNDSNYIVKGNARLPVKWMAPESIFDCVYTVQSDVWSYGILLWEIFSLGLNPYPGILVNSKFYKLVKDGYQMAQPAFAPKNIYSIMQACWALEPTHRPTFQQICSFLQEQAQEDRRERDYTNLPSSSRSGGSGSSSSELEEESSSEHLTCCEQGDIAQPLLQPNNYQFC", "experimental": "as §1"}, "[3]": {"molecular_target": "T3, CSNK1G2 (Homo sapiens, UniProt P78368)", "T3 construct": "purchased DiscoverX KINOMEscan scanEDGE; Eurofins Cerep SafetyScreen87", "experimental": "as §1"}, "[4]": {"molecular_target": "T4, TRKA (Homo sapiens, UniProt P04629)", "T4 construct": "purchased DiscoverX KINOMEscan scanEDGE; Eurofins Cerep SafetyScreen87", "experimental": "as §1"}, "[5]": {"molecular_target": "T5, PAK4 (Homo sapiens, UniProt O96013)", "T5 construct": "purchased DiscoverX KINOMEscan scanEDGE; Eurofins Cerep SafetyScreen87", "experimental": "as §1"}, "[6]": {"molecular_target": "T6, ADCK3 (Homo sapiens, UniProt Q8NI60)", "T6 construct": "purchased DiscoverX KINOMEscan scanEDGE; Eurofins Cerep SafetyScreen87", "T6 sequence (Q8NI60 163-647)": "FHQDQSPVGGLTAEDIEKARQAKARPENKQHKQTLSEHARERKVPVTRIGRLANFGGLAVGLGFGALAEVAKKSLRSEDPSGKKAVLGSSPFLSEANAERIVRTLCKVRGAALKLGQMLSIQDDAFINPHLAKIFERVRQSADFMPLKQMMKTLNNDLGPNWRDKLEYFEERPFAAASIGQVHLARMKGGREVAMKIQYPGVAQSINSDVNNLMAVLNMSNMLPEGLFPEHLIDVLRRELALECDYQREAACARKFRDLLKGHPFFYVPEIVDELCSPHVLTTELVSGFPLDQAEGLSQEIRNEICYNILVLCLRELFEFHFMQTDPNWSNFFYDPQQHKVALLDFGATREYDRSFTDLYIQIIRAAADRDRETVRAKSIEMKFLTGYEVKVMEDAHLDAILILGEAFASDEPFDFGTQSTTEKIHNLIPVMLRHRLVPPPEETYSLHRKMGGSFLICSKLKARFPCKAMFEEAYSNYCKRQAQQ", "experimental": "as §1"}, "[7]": {"molecular_target": "T7, MKNK1 (Homo sapiens, UniProt Q9BUB5)", "T7 construct": "purchased DiscoverX KINOMEscan scanEDGE; Eurofins Cerep SafetyScreen87", "experimental": "as §1"}, "[8]": {"molecular_target": "T8, MAP3K4 (Homo sapiens, UniProt Q9Y6R4)", "T8 construct": "purchased DiscoverX KINOMEscan scanEDGE; Eurofins Cerep SafetyScreen87", "experimental": "as §1"}, "[9]": {"molecular_target": "T9, MARK3 (Homo sapiens, UniProt P27448)", "T9 construct": "purchased DiscoverX KINOMEscan scanEDGE; Eurofins Cerep SafetyScreen87", "experimental": "as §1"}, "[10]": {"molecular_target": "T10, FGFR2 (Homo sapiens, UniProt P21802)", "T10 construct": "purchased DiscoverX KINOMEscan scanEDGE; Eurofins Cerep SafetyScreen87", "experimental": "as §1"}, "[11]": {"molecular_target": "T11, BRAF (Homo sapiens, UniProt P15056)", "T11 construct": "purchased DiscoverX KINOMEscan scanEDGE; Eurofins Cerep SafetyScreen87", "experimental": "as §1"}, "[12]": {"molecular_target": "T12, PIK3CA (Homo sapiens, UniProt P42336)", "T12 construct": "purchased DiscoverX KINOMEscan scanEDGE; Eurofins Cerep SafetyScreen87", "experimental": "as §1"}, "[13]": {"molecular_target": "T13, DCAMKL1 (Homo sapiens, UniProt O15075)", "T13 construct": "purchased DiscoverX KINOMEscan scanEDGE; Eurofins Cerep SafetyScreen87", "experimental": "as §1"}, "[14]": {"molecular_target": "T14, CDK3 (Homo sapiens, UniProt Q00526)", "T14 construct": "purchased DiscoverX KINOMEscan scanEDGE; Eurofins Cerep SafetyScreen87", "experimental": "as §1"}, "[15]": {"molecular_target": "T15, PIM3 (Homo sapiens, UniProt Q86V86)", "T15 construct": "purchased DiscoverX KINOMEscan scanEDGE; Eurofins Cerep SafetyScreen87", "experimental": "as §1"}, "[16]": {"molecular_target": "T16, ZAP70 (Homo sapiens, UniProt P43403)", "T16 construct": "purchased DiscoverX KINOMEscan scanEDGE; Eurofins Cerep SafetyScreen87", "experimental": "as §1"}, "[17]": {"molecular_target": "T17, SNARK (Homo sapiens, UniProt Q9H093)", "T17 construct": "purchased DiscoverX KINOMEscan scanEDGE; Eurofins Cerep SafetyScreen87", "experimental": "as §1"}, "[18]": {"molecular_target": "T18, PLK4 (Homo sapiens, UniProt O00444)", "T18 construct": "purchased DiscoverX KINOMEscan scanEDGE; Eurofins Cerep SafetyScreen87", "experimental": "as §1"}, "[19]": {"molecular_target": "T19, FAK (Homo sapiens, UniProt Q05397)", "T19 construct": "purchased DiscoverX KINOMEscan scanEDGE; Eurofins Cerep SafetyScreen87", "experimental": "as §1"}, "[20]": {"molecular_target": "T20, MEK1 (Homo sapiens, UniProt Q02750)", "T20 construct": "purchased DiscoverX KINOMEscan scanEDGE; Eurofins Cerep SafetyScreen87", "experimental": "as §1"}, "[21]": {"molecular_target": "T21, PDGFRA (Homo sapiens, UniProt P16234)", "T21 construct": "purchased DiscoverX KINOMEscan scanEDGE; Eurofins Cerep SafetyScreen87", "experimental": "as §1"}, "[22]": {"molecular_target": "T22, MLK1 (Homo sapiens, UniProt P80192)", "T22 construct": "purchased DiscoverX KINOMEscan scanEDGE; Eurofins Cerep SafetyScreen87", "experimental": "as §1"}, "[23]": {"molecular_target": "T23, CDK9 (Homo sapiens, UniProt P50750)", "T23 construct": "purchased DiscoverX KINOMEscan scanEDGE; Eurofins Cerep SafetyScreen87", "experimental": "as §1"}, "[24]": {"molecular_target": "T24, PIK3C2B (Homo sapiens, UniProt O00750)", "T24 construct": "purchased DiscoverX KINOMEscan scanEDGE; Eurofins Cerep SafetyScreen87", "experimental": "as §1"}, "[25]": {"molecular_target": "T25, p38-alpha (Homo sapiens, UniProt Q16539)", "T25 construct": "purchased DiscoverX KINOMEscan scanEDGE; Eurofins Cerep SafetyScreen87", "experimental": "as §1"}, "[26]": {"molecular_target": "T26, ABL1-phosphorylated (Homo sapiens, UniProt P00519)", "T26 construct": "purchased DiscoverX KINOMEscan scanEDGE; Eurofins Cerep SafetyScreen87", "experimental": "as §1"}, "[27]": {"molecular_target": "T27, JNK3 (Homo sapiens, UniProt P53779)", "T27 construct": "purchased DiscoverX KINOMEscan scanEDGE; Eurofins Cerep SafetyScreen87", "experimental": "as §1"}, "[28]": {"molecular_target": "T28, KIT (Homo sapiens, UniProt P10721)", "T28 construct": "purchased DiscoverX KINOMEscan scanEDGE; Eurofins Cerep SafetyScreen87", "T28 sequence (P10721 26-976)": "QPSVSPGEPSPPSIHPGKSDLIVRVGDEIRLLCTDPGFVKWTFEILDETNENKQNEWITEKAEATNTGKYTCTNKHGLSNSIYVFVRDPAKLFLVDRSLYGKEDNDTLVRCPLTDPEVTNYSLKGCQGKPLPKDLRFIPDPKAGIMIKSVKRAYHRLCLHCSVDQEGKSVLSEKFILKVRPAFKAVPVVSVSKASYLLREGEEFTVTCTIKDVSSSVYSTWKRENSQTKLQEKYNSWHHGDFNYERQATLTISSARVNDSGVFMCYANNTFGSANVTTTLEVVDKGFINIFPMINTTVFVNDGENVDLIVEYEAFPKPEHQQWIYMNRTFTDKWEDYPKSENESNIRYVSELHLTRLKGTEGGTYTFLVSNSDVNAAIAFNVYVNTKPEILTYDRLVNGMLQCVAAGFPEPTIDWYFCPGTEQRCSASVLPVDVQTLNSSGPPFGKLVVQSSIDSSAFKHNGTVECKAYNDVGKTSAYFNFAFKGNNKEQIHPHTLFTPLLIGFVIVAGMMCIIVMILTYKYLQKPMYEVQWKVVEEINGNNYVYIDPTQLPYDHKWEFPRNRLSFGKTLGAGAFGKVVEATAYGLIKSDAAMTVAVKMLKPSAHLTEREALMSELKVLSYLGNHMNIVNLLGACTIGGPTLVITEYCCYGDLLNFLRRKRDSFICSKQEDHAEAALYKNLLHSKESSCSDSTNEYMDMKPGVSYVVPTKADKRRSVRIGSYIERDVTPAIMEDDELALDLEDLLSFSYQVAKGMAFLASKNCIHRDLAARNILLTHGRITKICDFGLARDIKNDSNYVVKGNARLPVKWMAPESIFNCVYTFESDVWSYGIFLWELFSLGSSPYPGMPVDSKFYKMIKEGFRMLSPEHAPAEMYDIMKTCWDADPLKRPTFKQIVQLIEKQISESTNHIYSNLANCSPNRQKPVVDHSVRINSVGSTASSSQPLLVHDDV", "experimental": "as §1"}, "[29]": {"molecular_target": "T29, DYRK1B (Homo sapiens, UniProt Q9Y463)", "T29 construct": "purchased DiscoverX KINOMEscan scanEDGE; Eurofins Cerep SafetyScreen87", "experimental": "as §1"}, "[30]": {"molecular_target": "T30, EGFR(L858R) (Homo sapiens, UniProt P00533, L858R)", "T30 construct": "purchased DiscoverX KINOMEscan scanEDGE; Eurofins Cerep SafetyScreen87", "experimental": "as §1"}, "[31]": {"molecular_target": "T31, ERBB2 (Homo sapiens, UniProt P04626)", "T31 construct": "purchased DiscoverX KINOMEscan scanEDGE; Eurofins Cerep SafetyScreen87", "T31 sequence (P04626 23-1255)": "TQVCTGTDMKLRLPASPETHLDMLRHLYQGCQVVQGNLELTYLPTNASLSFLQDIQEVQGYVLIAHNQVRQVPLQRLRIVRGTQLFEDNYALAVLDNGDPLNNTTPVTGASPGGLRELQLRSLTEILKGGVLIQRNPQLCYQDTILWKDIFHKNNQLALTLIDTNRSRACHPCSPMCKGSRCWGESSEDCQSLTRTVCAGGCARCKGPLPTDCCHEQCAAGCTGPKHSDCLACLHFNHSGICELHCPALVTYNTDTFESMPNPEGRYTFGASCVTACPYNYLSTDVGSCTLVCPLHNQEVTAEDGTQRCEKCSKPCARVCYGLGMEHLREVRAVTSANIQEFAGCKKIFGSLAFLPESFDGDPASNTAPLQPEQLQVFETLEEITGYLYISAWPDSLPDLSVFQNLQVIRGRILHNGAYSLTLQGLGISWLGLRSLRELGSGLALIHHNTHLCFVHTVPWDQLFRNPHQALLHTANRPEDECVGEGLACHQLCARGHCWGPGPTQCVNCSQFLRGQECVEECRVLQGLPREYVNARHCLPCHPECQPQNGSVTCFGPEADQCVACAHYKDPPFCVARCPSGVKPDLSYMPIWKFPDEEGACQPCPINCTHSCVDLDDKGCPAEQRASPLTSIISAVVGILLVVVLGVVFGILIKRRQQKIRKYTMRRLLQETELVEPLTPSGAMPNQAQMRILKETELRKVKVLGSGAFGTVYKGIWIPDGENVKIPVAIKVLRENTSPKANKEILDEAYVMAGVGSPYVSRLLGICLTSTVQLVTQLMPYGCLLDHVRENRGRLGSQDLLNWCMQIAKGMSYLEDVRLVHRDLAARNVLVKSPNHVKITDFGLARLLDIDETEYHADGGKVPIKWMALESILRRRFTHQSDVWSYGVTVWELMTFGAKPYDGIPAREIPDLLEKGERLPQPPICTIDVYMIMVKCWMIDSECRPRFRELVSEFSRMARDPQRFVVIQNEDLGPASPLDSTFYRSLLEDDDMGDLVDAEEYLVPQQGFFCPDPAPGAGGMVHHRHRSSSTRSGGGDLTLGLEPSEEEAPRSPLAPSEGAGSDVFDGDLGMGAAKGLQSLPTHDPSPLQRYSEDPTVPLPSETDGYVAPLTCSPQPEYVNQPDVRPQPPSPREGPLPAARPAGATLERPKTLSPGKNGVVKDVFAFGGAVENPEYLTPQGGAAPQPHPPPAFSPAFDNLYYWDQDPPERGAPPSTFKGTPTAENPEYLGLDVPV", "experimental": "as §1"}, "[32]": {"molecular_target": "T32, SRPK3 (Homo sapiens, UniProt Q9UPE1)", "T32 construct": "purchased DiscoverX KINOMEscan scanEDGE; Eurofins Cerep SafetyScreen87", "experimental": "as §1"}, "[33]": {"molecular_target": "T33, JNK2 (Homo sapiens, UniProt P45984)", "T33 construct": "purchased DiscoverX KINOMEscan scanEDGE; Eurofins Cerep SafetyScreen87", "experimental": "as §1"}, "[34]": {"molecular_target": "T34, CDK7 (Homo sapiens, UniProt P50613)", "T34 construct": "purchased DiscoverX KINOMEscan scanEDGE; Eurofins Cerep SafetyScreen87", "T34 sequence (P50613 whole entry)": "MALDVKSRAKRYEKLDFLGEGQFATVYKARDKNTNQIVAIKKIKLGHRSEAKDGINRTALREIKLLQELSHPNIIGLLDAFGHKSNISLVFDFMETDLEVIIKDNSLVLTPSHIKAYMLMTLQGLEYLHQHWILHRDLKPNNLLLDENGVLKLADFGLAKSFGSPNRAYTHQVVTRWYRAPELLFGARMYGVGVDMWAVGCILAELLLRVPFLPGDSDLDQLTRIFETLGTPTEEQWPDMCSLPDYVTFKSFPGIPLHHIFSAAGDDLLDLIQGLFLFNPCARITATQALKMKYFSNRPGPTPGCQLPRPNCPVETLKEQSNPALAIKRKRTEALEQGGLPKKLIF", "experimental": "as §1"}, "[35]": {"molecular_target": "T35, MAPKAPK2 (Homo sapiens, UniProt P49137)", "T35 construct": "purchased DiscoverX KINOMEscan scanEDGE; Eurofins Cerep SafetyScreen87", "experimental": "as §1"}, "[36]": {"molecular_target": "T36, EGFR (Homo sapiens, UniProt P00533)", "T36 construct": "purchased DiscoverX KINOMEscan scanEDGE; Eurofins Cerep SafetyScreen87", "experimental": "as §1"}, "[37]": {"molecular_target": "T37, RAF1 (Homo sapiens, UniProt P04049)", "T37 construct": "purchased DiscoverX KINOMEscan scanEDGE; Eurofins Cerep SafetyScreen87", "experimental": "as §1"}, "[38]": {"molecular_target": "T38, GSK3B (Homo sapiens, UniProt P49841)", "T38 construct": "purchased DiscoverX KINOMEscan scanEDGE; Eurofins Cerep SafetyScreen87", "experimental": "as §1"}, "[39]": {"molecular_target": "T39, JAK2(JH1domain-catalytic) (Homo sapiens, UniProt O60674)", "T39 construct": "JAK2(JH1domain-catalytic); purchased DiscoverX KINOMEscan scanEDGE; Eurofins Cerep SafetyScreen87", "T39 sequence (O60674 840-1132 limits assumed)": "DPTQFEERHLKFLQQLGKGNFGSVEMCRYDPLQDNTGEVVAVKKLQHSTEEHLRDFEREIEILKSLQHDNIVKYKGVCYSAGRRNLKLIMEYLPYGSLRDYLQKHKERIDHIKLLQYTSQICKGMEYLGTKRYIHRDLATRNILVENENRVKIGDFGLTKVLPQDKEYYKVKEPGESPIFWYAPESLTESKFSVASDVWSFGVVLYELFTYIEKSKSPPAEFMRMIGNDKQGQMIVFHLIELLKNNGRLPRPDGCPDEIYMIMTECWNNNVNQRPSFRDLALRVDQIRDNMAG", "experimental": "as §1"}, "[40]": {"molecular_target": "T40, YANK3 (Homo sapiens, UniProt Q86UX6)", "T40 construct": "purchased DiscoverX KINOMEscan scanEDGE; Eurofins Cerep SafetyScreen87", "T40 sequence (Q86UX6 whole entry)": "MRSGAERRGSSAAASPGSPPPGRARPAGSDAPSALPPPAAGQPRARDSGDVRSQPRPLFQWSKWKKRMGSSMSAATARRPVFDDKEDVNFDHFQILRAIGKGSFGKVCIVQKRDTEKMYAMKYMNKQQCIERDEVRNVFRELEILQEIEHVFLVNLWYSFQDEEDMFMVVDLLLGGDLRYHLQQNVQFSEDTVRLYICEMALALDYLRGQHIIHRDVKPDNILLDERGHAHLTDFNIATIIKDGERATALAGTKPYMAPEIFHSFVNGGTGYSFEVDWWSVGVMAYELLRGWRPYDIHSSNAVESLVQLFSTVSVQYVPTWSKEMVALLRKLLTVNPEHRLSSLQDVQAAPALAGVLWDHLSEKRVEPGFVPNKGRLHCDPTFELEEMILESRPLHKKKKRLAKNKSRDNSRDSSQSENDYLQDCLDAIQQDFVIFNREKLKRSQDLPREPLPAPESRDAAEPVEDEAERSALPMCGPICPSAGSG", "experimental": "as §1"}}, "data": [{"smiles": "CNc1ccc(NCCc2ccccc2OC)cc1.Cl", "note": "[KDS12025, N^1-(2-methoxyphenethyl)-N^4-methylbenzene-1,4-diamine hydrochloride salt]", "values": [{"measurement": "remaining binding at 10 µM", "setting": "[1]", "result": 56, "unit": "%"}, {"measurement": "remaining binding at 10 µM", "setting": "[2]", "result": 100, "unit": "%"}, {"measurement": "remaining binding at 10 µM", "setting": "[3]", "result": 45, "unit": "%"}, {"measurement": "remaining binding at 10 µM", "setting": "[4]", "result": 100, "unit": "%"}, {"measurement": "remaining binding at 10 µM", "setting": "[5]", "result": 100, "unit": "%"}, {"measurement": "remaining binding at 10 µM", "setting": "[6]", "result": 93, "unit": "%"}, {"measurement": "remaining binding at 10 µM", "setting": "[7]", "result": 100, "unit": "%"}, {"measurement": "remaining binding at 10 µM", "setting": "[8]", "result": 100, "unit": "%"}, {"measurement": "remaining binding at 10 µM", "setting": "[9]", "result": 66, "unit": "%"}, {"measurement": "remaining binding at 10 µM", "setting": "[10]", "result": 87, "unit": "%"}, {"measurement": "remaining binding at 10 µM", "setting": "[11]", "result": 100, "unit": "%"}, {"measurement": "remaining binding at 10 µM", "setting": "[12]", "result": 63, "unit": "%"}, {"measurement": "remaining binding at 10 µM", "setting": "[13]", "result": 82, "unit": "%"}, {"measurement": "remaining binding at 10 µM", "setting": "[14]", "result": 79, "unit": "%"}, {"measurement": "remaining binding at 10 µM", "setting": "[15]", "result": 84, "unit": "%"}, {"measurement": "remaining binding at 10 µM", "setting": "[16]", "result": 88, "unit": "%"}, {"measurement": "remaining binding at 10 µM", "setting": "[17]", "result": 100, "unit": "%"}, {"measurement": "remaining binding at 10 µM", "setting": "[18]", "result": 77, "unit": "%"}, {"measurement": "remaining binding at 10 µM", "setting": "[19]", "result": 100, "unit": "%"}, {"measurement": "remaining binding at 10 µM", "setting": "[20]", "result": 82, "unit": "%"}, {"measurement": "remaining binding at 10 µM", "setting": "[21]", "result": 85, "unit": "%"}, {"measurement": "remaining binding at 10 µM", "setting": "[22]", "result": 79, "unit": "%"}, {"measurement": "remaining binding at 10 µM", "setting": "[23]", "result": 83, "unit": "%"}, {"measurement": "remaining binding at 10 µM", "setting": "[24]", "result": 91, "unit": "%"}, {"measurement": "remaining binding at 10 µM", "setting": "[25]", "result": 100, "unit": "%"}, {"measurement": "remaining binding at 10 µM", "setting": "[26]", "result": 100, "unit": "%"}, {"measurement": "remaining binding at 10 µM", "setting": "[27]", "result": 68, "unit": "%"}, {"measurement": "remaining binding at 10 µM", "setting": "[28]", "result": 90, "unit": "%"}, {"measurement": "remaining binding at 10 µM", "setting": "[29]", "result": 67, "unit": "%"}, {"measurement": "remaining binding at 10 µM", "setting": "[30]", "result": 45, "unit": "%"}, {"measurement": "remaining binding at 10 µM", "setting": "[31]", "result": 100, "unit": "%"}, {"measurement": "remaining binding at 10 µM", "setting": "[32]", "result": 91, "unit": "%"}, {"measurement": "remaining binding at 10 µM", "setting": "[33]", "result": 91, "unit": "%"}, {"measurement": "remaining binding at 10 µM", "setting": "[34]", "result": 89, "unit": "%"}, {"measurement": "remaining binding at 10 µM", "setting": "[35]", "result": 75, "unit": "%"}, {"measurement": "remaining binding at 10 µM", "setting": "[36]", "result": 48, "unit": "%"}, {"measurement": "remaining binding at 10 µM", "setting": "[37]", "result": 95, "unit": "%"}, {"measurement": "remaining binding at 10 µM", "setting": "[38]", "result": 95, "unit": "%"}, {"measurement": "remaining binding at 10 µM", "setting": "[39]", "result": 100, "unit": "%"}, {"measurement": "remaining binding at 10 µM", "setting": "[40]", "result": 83, "unit": "%"}]}]}
